Data: patent publication US8940896B2, “Tetra-cyclic carboline derivatives useful in the inhibition of angiogenesis” (PTC Therapeutics, Inc., priority 2004, dated 2015)

Test system: VEGF
Test: Hypoxia-inducible endogenous VEGF expression, VEGF ELISA assay
Assay type: cell-based
Details: HeLa cells, hypoxic conditions (1% O2, 5% CO2), VEGF in conditioned media
Protocol: The ability of the compounds of the invention to modulate hypoxia-inducible endogenous VEGF expression may be analyzed as follows. VEGF protein levels may be monitored by an ELISA assay (R&D Systems). Briefly, HeLa cells may be cultured for 24-48 hours under hypoxic conditions (1% O2, 5% CO2, balanced with nitrogen) in the presence or absence of a compound of the invention. The conditioned media may then be assayed by ELISA, and the concentration of VEGF calculated from the standard ELISA curve of each assay.
A dose-response analysis may be performed using the ELISA assay and conditions described above. The conditions for the dose-response ELISA are analogous to those described above. A series of, e.g., seven different concentrations may be analyzed. In parallel, a dose-response cytotoxicity assay may be performed using CellTiter Glo (Promega) under the same conditions as the ELISA to ensure that the inhibition of VEGF expression was not due to the cytotoxicity. Dose-response curves may be plotted using percentage inhibition versus concentration of the compound, and EC50 and CC50 values may be generated for each compound with the maximal inhibition set as 100% and the minimal inhibition as 0%.

Row | SMILES | EC50 (Homo sapiens, HeLa) | EC50
1 | CN1C(=O)C2Cc3c([nH]c4ccccc34)C(c3cccc(Cl)c3Cl)N2C1=S (stereo not shown) [Compound 75] | > 1000 nM | –
2 | COc1ccccc1C1c2[nH]c3ccccc3c2CC2C(=O)N(C)C(=S)N21 (stereo not shown) [Compound 76] | > 1000 nM | –
3 | C=CCN1C(=O)C2Cc3c([nH]c4ccccc34)C(c3ccc(O)cc3)N2C1=S (stereo not shown) [Compound 77] | > 1000 nM | –
4 | COc1ccc(C2c3[nH]c4ccccc4c3CC3C(=O)N(c4ccc(OC)cc4C)C(=S)N32)cc1 (stereo not shown) [Compound 78] | > 1000 nM | –
5 | COc1ccc(C2c3[nH]c4ccccc4c3CC3C(=O)N(CCc4ccccc4)C(=S)N32)cc1 (stereo not shown) [Compound 79] | > 1000 nM | –
6 | C=CCN1C(=O)C2Cc3c([nH]c4ccccc34)C(c3ccccc3OC)N2C1=S (stereo not shown) [Compound 85] | – | > 1000 nM
7 | COc1ccccc1C1c2[nH]c3ccccc3c2CC2C(=O)N(C(C)C)C(=S)N21 (stereo not shown) [Compound 86] | > 1000 nM | –
8 | COc1ccccc1C1c2[nH]c3ccccc3c2CC2C(=O)N(C3CCCCC3)C(=S)N21 (stereo not shown) [Compound 87] | > 1000 nM | –
9 | COc1ccccc1C1c2[nH]c3ccccc3c2CC2C(=O)N(c3ccccc3)C(=S)N21 (stereo not shown) [Compound 88] | > 1000 nM | –
10 | COc1ccccc1C1c2[nH]c3ccccc3c2CC2C(=O)N(c3ccccc3C)C(=S)N21 (stereo not shown) [Compound 89] | > 1000 nM | –
11 | COc1ccccc1C1c2[nH]c3ccccc3c2CC2C(=O)N(c3cccc(C)c3)C(=S)N21 (stereo not shown) [Compound 90] | > 1000 nM | –
12 | COc1ccccc1C1c2[nH]c3ccccc3c2CC2C(=O)N(c3ccc(C)cc3)C(=S)N21 (stereo not shown) [Compound 91] | > 1000 nM | –
13 | COc1ccccc1C1c2[nH]c3ccccc3c2CC2C(=O)N(c3cccc(F)c3)C(=S)N21 (stereo not shown) [Compound 92] | > 1000 nM | –
14 | COc1ccccc1C1c2[nH]c3ccccc3c2CC2C(=O)N(Cc3ccccc3)C(=S)N21 (stereo not shown) [Compound 93] | > 1000 nM | –
15 | COc1ccccc1C1c2[nH]c3ccccc3c2CC2C(=O)N(CCc3ccccc3)C(=S)N21 (stereo not shown) [Compound 94] | > 1000 nM | –
16 | CCC(C)N1C(=O)C2Cc3c([nH]c4ccc(Br)cc34)C(c3ccc(C(C)C)cc3)N2C1=S (stereo not shown) [Compound 95] | < 8 nM | –
17 | Cc1ccc(N2C(=O)C3Cc4c([nH]c5ccc(Br)cc45)C(c4ccc(C(C)C)cc4)N3C2=S)cc1 (stereo not shown) [Compound 96] | < 8 nM | –
18 | CC(C)c1ccc(C2c3[nH]c4ccc(Br)cc4c3CC3C(=O)N(C4CCCCC4)C(=S)N32)cc1 (stereo not shown) [Compound 97] | < 8 nM | –
19 | CCCCCN1C(=O)C2Cc3c([nH]c4ccc(Br)cc34)C(c3ccc(C(C)C)cc3)N2C1=S (stereo not shown) [Compound 98] | < 8 nM | –
20 | COc1ccc(C2c3[nH]c4ccc(Br)cc4c3CC3C(=O)N(c4cccnc4)C(=S)N32)cc1 (stereo not shown) [Compound 99] | < 8 nM | –
21 | CN1C(=O)C2Cc3c([nH]c4ccc(Br)cc34)C(c3ccc(OCCN4CCOCC4)cc3)N2C1=S (stereo not shown) [Compound 100] | 8 to 40 nM | –

Row | SMILES | EC50 (Homo sapiens, HeLa) | EC50
22 | CCN1C(=O)C2Cc3c([nH]c4ccc(Br)cc34)C(c3ccc(OCCN4CCOCC4)cc3)N2C1=S (stereo not shown) [Compound 101] | < 8 nM | –
23 | CCCN1C(=O)C2Cc3c([nH]c4ccc(Br)cc34)C(c3ccc(OCCN4CCOCC4)cc3)N2C1=S (stereo not shown) [Compound 102] | 8 to 40 nM | –
24 | CC(C)N1C(=O)C2Cc3c([nH]c4ccc(Br)cc34)C(c3ccc(OCCN4CCOCC4)cc3)N2C1=S (stereo not shown) [Compound 103] | < 8 nM | –
25 | O=C1C2Cc3c([nH]c4ccc(Br)cc34)C(c3ccc(OCCN4CCOCC4)cc3)N2C(=S)N1C1CCCC1 (stereo not shown) [Compound 104] | < 8 nM | –
26 | COCCCN1C(=O)C2Cc3c([nH]c4ccc(Br)cc34)C(c3ccc(OCCN4CCOCC4)cc3)N2C1=S (stereo not shown) [Compound 105] | 8 to 40 nM | –
27 | O=C1C2Cc3c([nH]c4ccc(Br)cc34)C(c3ccc(OCCN4CCOCC4)cc3)N2C(=S)N1CC1CCCO1 (stereo not shown) [Compound 106] | 40 to 200 nM | –
28 | COCCOc1ccc(C2c3[nH]c4ccc(Cl)cc4c3CC3C(=O)N(C)C(=S)N32)cc1 (stereo not shown) [Compound 107] | < 8 nM | –
29 | COCCOc1ccc(C2c3[nH]c4ccc(Cl)cc4c3CC3C(=O)N(C(C)C)C(=S)N32)cc1 (stereo not shown) [Compound 108] | 8 to 40 nM | –
30 | COCCOc1ccc(C2c3[nH]c4ccc(Cl)cc4c3CC3C(=O)N(C4CCCC4)C(=S)N32)cc1 (stereo not shown) [Compound 109] | 8 to 40 nM | –
31 | COCCCN1C(=O)C2Cc3c([nH]c4ccc(Cl)cc34)C(c3ccc(OCCOC)cc3)N2C1=S (stereo not shown) [Compound 110] | 8 to 40 nM | –
32 | COCCOc1ccc(C2c3[nH]c4ccc(Br)cc4c3CC3C(=O)N(C4CCCCC4)C(=S)N32)cc1 (stereo not shown) [Compound 111] | < 8 nM | –
33 | CN(C)CCCOc1ccc(C2c3[nH]c4ccc(Br)cc4c3CC3C(=O)N(C4CCCCC4)C(=S)N32)cc1 (stereo not shown) [Compound 112] | < 8 nM | –
34 | O=C1C2Cc3c([nH]c4ccc(Cl)cc34)C(c3ccc(OCCN4CCOCC4)cc3)N2C(=S)N1C1CCCCC1 (stereo not shown) [Compound 113] | < 8 nM | –
35 | CN(C)CCCOc1ccc(C2c3[nH]c4ccc(Cl)cc4c3CC3C(=O)N(C4CCCCC4)C(=S)N32)cc1 (stereo not shown) [Compound 114] | 40 to 200 nM | –
36 | O=C1C2Cc3c([nH]c4ccc(Br)cc34)C(c3ccc(OCCN4CCOCC4)cc3)N2C(=S)N1C1CCCCC1 (stereo not shown) [Compound 115] | < 8 nM | –
37 | COCCOc1ccc(C2c3[nH]c4ccc(Cl)cc4c3CC3C(=O)N(C4CCCCC4)C(=S)N32)cc1 (stereo not shown) [Compound 116] | < 8 nM | –
38 | COCCOc1ccc(C2c3[nH]c4ccc(Br)cc4c3CC3C(=O)N(C4CCCCC4)C(=S)N32)cc1 (stereo not shown) [Compound 117] | – | < 8 nM
39 | CC(C)N1C(=O)C2Cc3c([nH]c4ccc(Br)cc34)C(c3ccc(N4CCOCC4)cc3)N2C1=O (stereo not shown) [Compound 118] | 40 to 200 nM | –
40 | CC(C)N1C(=O)C2Cc3c([nH]c4ccc(Br)cc34)C(c3ccc(-c4ccncc4)cc3)N2C1=O (stereo not shown) [Compound 120] | 200 to 1000 nM | –
41 | CC(C)N1C(=O)C2Cc3c([nH]c4ccc(Br)cc34)C(c3ccc(-c4cncnc4)cc3)N2C1=O (stereo not shown) [Compound 121] | 40 to 200 nM | –
42 | CC(C)N1C(=O)C2Cc3c([nH]c4ccc(Cl)cc34)C(c3ccc(N4CCOCC4)cc3)N2C1=O (stereo not shown) [Compound 122] | 200 to 1000 nM | –

Row | SMILES | EC50 (Homo sapiens, HeLa) | EC50
43 | CC(C)N1C(=O)C2Cc3c([nH]c4ccc(Cl)cc34)C(c3ccc(-n4ccnc4)cc3)N2C1=O (stereo not shown) [Compound 123] | 200 to 1000 nM | –
44 | CC(C)N1C(=O)C2Cc3c([nH]c4ccc(Cl)cc34)C(c3ccc(N4CCN(C)CC4)cc3)N2C1=O (stereo not shown) [Compound 124] | 40 to 200 nM | –
45 | CC(C)N1C(=O)C2Cc3c([nH]c4ccc(Cl)cc34)C(c3ccc(-c4ccncc4)cc3)N2C1=O (stereo not shown) [Compound 125] | 200 to 1000 nM | –
46 | CC(C)N1C(=O)C2Cc3c([nH]c4ccc(Cl)cc34)C(c3ccc(-c4cncnc4)cc3)N2C1=O (stereo not shown) [Compound 126] | 200 to 1000 nM | –
47 | CC(C)N1C(=O)C2Cc3c([nH]c4ccc(Br)cc34)C(c3ccc(N4CCOCC4)cc3)N2C1=S (stereo not shown) [Compound 127] | < 8 nM | –
48 | CC(C)N1C(=O)C2Cc3c([nH]c4ccc(Br)cc34)C(c3ccc(-n4ccnc4)cc3)N2C1=S (stereo not shown) [Compound 128] | 8 to 40 nM | –
49 | CC(C)N1C(=O)C2Cc3c([nH]c4ccc(Br)cc34)C(c3ccc(N4CCN(C)CC4)cc3)N2C1=S (stereo not shown) [Compound 129] | 8 to 40 nM | –
50 | CC(C)N1C(=O)C2Cc3c([nH]c4ccc(Br)cc34)C(c3ccc(-c4ccncc4)cc3)N2C1=S (stereo not shown) [Compound 130] | 40 to 200 nM | –
51 | CC(C)N1C(=O)C2Cc3c([nH]c4ccc(Br)cc34)C(c3ccc(-c4cncnc4)cc3)N2C1=S (stereo not shown) [Compound 131] | 8 to 40 nM | –
52 | CC(C)N1C(=O)C2Cc3c([nH]c4ccc(Cl)cc34)C(c3ccc(-n4ccnc4)cc3)N2C1=S (stereo not shown) [Compound 132] | 40 to 200 nM | –
53 | CC(C)N1C(=O)C2Cc3c([nH]c4ccc(Cl)cc34)C(c3ccc(N4CCN(C)CC4)cc3)N2C1=S (stereo not shown) [Compound 133] | 40 to 200 nM | –
54 | CC(C)N1C(=O)C2Cc3c([nH]c4ccc(Cl)cc34)C(c3ccc(-c4ccncc4)cc3)N2C1=S (stereo not shown) [Compound 134] | 8 to 40 nM | –
55 | CC(C)N1C(=O)C2Cc3c([nH]c4ccc(Cl)cc34)C(c3ccc(-c4cncnc4)cc3)N2C1=S (stereo not shown) [Compound 135] | 40 to 200 nM | –
56 | COC(=O)CN1C(=O)C2Cc3c([nH]c4ccc(Br)cc34)C(c3ccc(OC)cc3)N2C1=S (stereo not shown) [Compound 136] | 40 to 200 nM | –
57 | CCOC(=O)CN1C(=O)C2Cc3c([nH]c4ccc(Br)cc34)C(c3ccc(OC)cc3)N2C1=S (stereo not shown) [Compound 137] | 8 to 40 nM | –
58 | COc1ccc(C2c3[nH]c4ccc(Br)cc4c3CC3C(=O)N(c4ccc(Cl)cc4)C(=S)N32)cc1 (stereo not shown) [Compound 138] | < 8 nM | –
59 | COC(=O)c1ccc(N2C(=O)C3Cc4c([nH]c5ccc(Br)cc45)C(c4ccc(OC)cc4)N3C2=S)cc1 (stereo not shown) [Compound 139] | 8 to 40 nM | –
60 | COC(=O)c1cccc(N2C(=O)C3Cc4c([nH]c5ccc(Br)cc45)C(c4ccc(OC)cc4)N3C2=S)c1 (stereo not shown) [Compound 140] | < 8 nM | –
61 | COc1ccc(C2c3[nH]c4ccc(Br)cc4c3CC3C(=O)N(c4ccc(OC(C)=O)cc4)C(=S)N32)cc1 (stereo not shown) [Compound 141] | < 8 nM | –
